These results are taken from patent US5270344A, “Method of treating a systemic disorder using trioxolane and diperoxide compounds” (priority 1992, dated 1993).

One data set concerns Ph. verrucose. Type of data set: cell-based, Phialophora verrucose.
Another data set concerns lymphocytes. More on the design: species or system Balb/c mice. The settings on record: mouse, in vivo.
The next data set concerns Leishmania donova. More on the design: species or system Balb/c mice. To be noted: mouse, in vivo.
Data set [1] deals with Shigella. Type of data set: cell-based, Shigella spp.
In data set [2] the test system is Candida. Format: cell-based, Candida spp.
Data set [3] relates to commonly encountered microorganisms. Format: cell-based, bacteria and fungi.
Data set [4] has as its system Candida. Type of data set: cell-based, Candida spp. The source holds these as a separate data set.
The subject of data set [5] is Shigella. Type of data set: cell-based, Shigella spp. This is another data set of the same source.
In data set [6] the test system is Salmonella. Format: cell-based, Salmonella spp.
The test system of a further data set is C. albicans. Type of data set: cell-based, Candida albicans.
For data set [7], the system named is Pseudomonas. Format: cell-based, Pseudomonas spp.
Data set [8] deals with Pseudomonas. Type of data set: cell-based, Pseudomonas spp. This is another data set of the same source.
Another data set has as its system Kiebisella. Type of data set: cell-based, Klebsiella spp.
Data set [9] deals with Pseudomonas. Type of data set: cell-based, Pseudomonas spp. This is another data set of the same source.
Data set [10] deals with Myeloma cell line (×63 balb/c line). Format: cell-based, balb/c (mouse).
The subject of a further data set is E. coli. Type of data set: cell-based.
Data set [11] concerns Salmonella. Type of data set: cell-based, Salmonella spp. This is another data set of the same source.
In data set [12] the test system is EPEC/ETEC. Type of data set: cell-based, enteropathogenic/enterotoxigenic Escherichia coli.
The next data set deals with Cryptococcus. Type of data set: cell-based, Cryptoccus spp.
Data set [13] deals with S. aureus. Type of data set: cell-based, Staphylococcus aureus.
A further data set relates to S. epidermidis. Type of data set: cell-based, Staphylococcus epidermidis.
Data set [14] has as its system Shigella. Type of data set: cell-based, Shigella spp. The source holds these as a separate data set.
The test system of data set [15] is S. aureus. Format: cell-based, Staphylococcus aureus. This is another data set of the same source.
Data set [16] relates to Salmonella. Type of data set: cell-based, Salmonella spp. The source holds these as a separate data set.
The next data set deals with Leishmania major. The arrangement: species or system balb/c mice. To be noted: mouse, in vivo.
The next data set has as its system Penicillium. Type of data set: cell-based, Penicillium spp.
The test system of a further data set is Tri. violaceum. Type of data set: cell-based, Trichophyton violaceum.
The subject of data set [17] is S. aureus. Format: cell-based, Staphylococcus aureus. The source holds these as a separate data set.
Data set [18] has as its system Pseudomonas. Format: cell-based, Pseudomonas spp. The source holds these as a separate data set.
Data set [19] has as its system EPEC/ETEC. Format: cell-based, enteropathogenic/enterotoxigenic Escherichia coli. This is another data set of the same source.
Data set [20] concerns S. aureus. Format: cell-based, Staphylococcus aureus. This is another data set of the same source.
Data set [21] deals with Salmonella. Format: cell-based, Salmonella spp. The source holds these as a separate data set.
Another data set deals with Tri. canis. Type of data set: cell-based, Trichophyton canis.
Data set [22] relates to EPEC/ETEC. Format: cell-based, enteropathogenic/enterotoxigenic Escherichia coli. The source holds these as a separate data set.
For data set [23], the system named is Shigella. Format: cell-based, Shigella spp. This is another data set of the same source.
A further data set has as its system N. gonorrhoea. Type of data set: cell-based, Neisseria gonorrhoea.
Data set [24] concerns Candida. Type of data set: cell-based, Candida spp. This is another data set of the same source.
In another data set the test system is human spermatozoa. Type of data set: cell-based.
For data set [25], the system named is EPEC/ETEC. Format: cell-based, enteropathogenic/enterotoxigenic Escherichia coli. The source holds these as a separate data set.
The next data set concerns Archromobacter. Format: cell-based, Achromobacter.
The conditions of data set [26]: rabbit, in vivo.
Experimental: Six healthy New Zealand White rabbits were selected for study. The rabbits' eyes were judged free of irritation prior to the study by examining with a pen light and under UV light after installation of 2% fluorescein stain. A 1% solution of the trioxolane or diperoxide derivative of linalool was prepared in isopropyl myristate. A 0.1 ml portion of this test solution was instilled into the lower conjunctival sac of one eye of each rabbit. The lids were held closed for one second. The opposite eye of each rabbit received 0.1 ml of the isopropyl myristate, as control. […] At 24, 48, and 72 hours post dosing, the eyes were examined with a pen light and re-examined with UV light following fluorescein staining of the cornea.

Values after ≈ are worked out from the molar mass of the structure shown. Like-named read-outs stand apart in the source and are kept apart here.

The term MIC denotes the lowest concentration found to suppress growth. Read a high MIC as a need for much substance. In the case of `CCC1OOC(CCO)O1` (stereo not drawn) [Trioxolane derivative of cis 3-hexene-1-ol], the MIC in the data set with Ph. verrucose came out at 150 µg/mL (≈ 1010 µM); in the data set with Shigella [1] it was 250 µg/mL (≈ 1690 µM); in the data set with C. albicans, 31 µg/mL (≈ 209 µM); in the data set with Pseudomonas [8], 7 µg/mL (≈ 47.2 µM); with Kiebisella, 7 µg/mL (≈ 47.2 µM); in the data set on E. coli it was 120 µg/mL (≈ 810 µM). The MIC against Cryptococcus was determined as 15 µg/mL (≈ 101 µM); in the data set on S. epidermidis, 25 µg/mL (≈ 169 µM); in the data set on S. aureus [15], 250 µg/mL (≈ 1690 µM); in the data set on Penicillium it was 310 µg/mL (≈ 2090 µM); against Tri. violaceum, 150 µg/mL (≈ 1010 µM); in the data set on Salmonella [21], 7 µg/mL (≈ 47.2 µM). Besides, the minimum inhibitory concentration (MIC) in the data set on Tri. canis worked out at 150 µg/mL (≈ 1010 µM); against N. gonorrhoea, 3.5 µg/mL (≈ 23.6 µM); in the data set with EPEC/ETEC [25] it was 250 µg/mL (≈ 1690 µM); with Archromobacter it was 60 µg/mL (≈ 405 µM). The “New clones of lymphocytes in bone marrow” value with lymphocytes is reported as “increase in new clones of lymphocytes”. The “Clearing parasites from the viscera” value in the data set with Leishmania donova was “perform better than Pentostam”. Besides, the MIC broth against Candida [2] was 310 µg/mL (≈ 2090 µM); in the data set on Shigella [5] it was 620 µg/mL (≈ 4180 µM); against Pseudomonas [9] it was 620 µg/mL (≈ 4180 µM); against Salmonella [11], 150 µg/mL (≈ 1010 µM); in the data set with EPEC/ETEC [12], 620 µg/mL (≈ 4180 µM); against S. aureus [17], 620 µg/mL (≈ 4180 µM). The “Activity compared with Geraniol trioxolane” value in [3] was “more active than Geraniol trioxolane”. Besides, in [3], the “Activity compared with conventional drugs” value is recorded as “more active than conventional drugs”. In addition, in [3], the “Effect of water on direct bioactivity” value was “significantly reduces the direct bioactivity”. Moreover, the MBC against Candida [4] was 1250 µg/mL (≈ 8440 µM); in the data set with Salmonella [16], 2500 µg/mL (≈ 16900 µM); in the data set on Pseudomonas [18], 1250 µg/mL (≈ 8440 µM); against EPEC/ETEC [19], 1250 µg/mL (≈ 8440 µM); in the data set with S. aureus [20], 1250 µg/mL (≈ 8440 µM); against Shigella [23] it was 1250 µg/mL (≈ 8440 µM). The MIC agar was determined as 7 µg/mL (≈ 47.2 µM) against Salmonella [6]; 7 µg/mL (≈ 47.2 µM) in the data set on Pseudomonas [7]; 120 µg/mL (≈ 810 µM) with S. aureus [13]; 7 µg/mL (≈ 47.2 µM) against Shigella [14]; 31 µg/mL (≈ 209 µM) with EPEC/ETEC [22]; 31 µg/mL (≈ 209 µM) against Candida [24]. Moreover, in data set [10], the “Time to kill myeloma cell line” value is at most 48 h. Further, the “lowest concentration inhibiting at least one isolate” value is 0.031 mg/mL in the data set with S. epidermidis, 0.031 mg/mL with S. aureus [15] and 0.0019 mg/mL in the data set with N. gonorrhoea. Also, in the data set on Leishmania major, the “Death, Day 14” value was “No death”. Further, the “General health, Day 14” value with Leishmania major was “Animals healthy and active”. Besides, the “Lesions, Day 0” value in the data set with Leishmania major and in the data set with Leishmania major (ip) was “Large lesions” in each case. Besides, the “Lesions, Day 14” value was “Lesions small and dry” in the data set on Leishmania major; “Lesions scabbed” in the data set with Leishmania major (ip). The “Dead, Day 14” value in the data set with Leishmania major (ip) is given as 2 dead. Moreover, in the data set with Leishmania major (ip), the “Palate involvement, Day 14” value is 2. Further, the “Time to kill human spermatozoa” value in the data set on human spermatozoa was at most 1 min.
On to linalool trioxolane, for which the Ocular irritation entry in data set [26] was “non-irritant to ocular tissues of the rabbit”.
For the compound `O.O.O.O.O.O.O.O.O.O=C([O-])[C@@H]1[O][Sb](=[O])([O][Sb]2(=[O])[O][C@H]([C@H](O)CO)[C@H](O)[C@H](C(=O)[O-])[O]2)[O][C@H]([C@H](O)CO)[C@@H]1O.[Na+].[Na+].[Na+]` (some centres unmarked) [Pentostam, reference compound], in the data set on Leishmania major (ip), the “Dead, Day 14” value amounted to 1 dead; the “Lesions, Day 0” value was “Large lesions”; the “Lesions, Day 14” value was “Large lesions breaking”.
